Here are results for 63 molecules from patent publication US12581252B2, “Substituted pyrrolo[3,4-b]pyridines as PI3K-α inhibitors” (Relay Therapeutics, Inc., priority 2020, dated 2026).

For the assay, the target named is H1047R PIK3CA enzyme (Homo sapiens, UniProt P42336, H1047R). As to the kind of experiment: ADP-Glo Biochemical PIK3CA Kinase Assay.
Chain of H1047R PIK3CA enzyme (P42336 whole entry H1047R): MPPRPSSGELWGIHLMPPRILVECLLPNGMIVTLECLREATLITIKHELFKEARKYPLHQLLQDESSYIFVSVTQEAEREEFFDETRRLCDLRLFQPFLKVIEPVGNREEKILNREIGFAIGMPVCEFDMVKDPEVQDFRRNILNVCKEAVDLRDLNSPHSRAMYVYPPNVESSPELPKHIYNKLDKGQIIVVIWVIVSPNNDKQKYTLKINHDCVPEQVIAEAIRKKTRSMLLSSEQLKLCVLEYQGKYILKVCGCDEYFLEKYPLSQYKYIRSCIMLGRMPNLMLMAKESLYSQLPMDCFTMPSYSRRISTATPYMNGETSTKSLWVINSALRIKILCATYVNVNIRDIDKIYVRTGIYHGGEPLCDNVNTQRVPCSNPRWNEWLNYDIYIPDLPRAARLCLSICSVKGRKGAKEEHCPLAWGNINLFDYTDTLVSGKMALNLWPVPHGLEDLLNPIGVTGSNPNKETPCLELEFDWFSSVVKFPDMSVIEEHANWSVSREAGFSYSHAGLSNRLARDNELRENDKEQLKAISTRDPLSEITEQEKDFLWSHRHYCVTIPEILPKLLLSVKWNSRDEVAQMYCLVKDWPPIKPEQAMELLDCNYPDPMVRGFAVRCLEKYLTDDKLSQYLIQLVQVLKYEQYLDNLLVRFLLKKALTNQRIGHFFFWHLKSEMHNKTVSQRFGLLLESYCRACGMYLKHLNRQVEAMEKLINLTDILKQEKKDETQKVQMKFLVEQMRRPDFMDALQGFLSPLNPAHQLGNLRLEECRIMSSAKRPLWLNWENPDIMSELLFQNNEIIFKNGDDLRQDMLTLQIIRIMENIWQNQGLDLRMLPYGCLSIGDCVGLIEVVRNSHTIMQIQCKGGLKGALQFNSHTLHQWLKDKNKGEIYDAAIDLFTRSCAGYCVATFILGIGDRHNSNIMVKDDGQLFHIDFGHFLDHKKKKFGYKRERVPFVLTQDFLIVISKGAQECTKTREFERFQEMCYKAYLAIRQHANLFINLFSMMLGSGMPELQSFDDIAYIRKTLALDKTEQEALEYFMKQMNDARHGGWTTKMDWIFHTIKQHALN
Chain of H1047R PIK3CA enzyme (P27986 whole entry partner): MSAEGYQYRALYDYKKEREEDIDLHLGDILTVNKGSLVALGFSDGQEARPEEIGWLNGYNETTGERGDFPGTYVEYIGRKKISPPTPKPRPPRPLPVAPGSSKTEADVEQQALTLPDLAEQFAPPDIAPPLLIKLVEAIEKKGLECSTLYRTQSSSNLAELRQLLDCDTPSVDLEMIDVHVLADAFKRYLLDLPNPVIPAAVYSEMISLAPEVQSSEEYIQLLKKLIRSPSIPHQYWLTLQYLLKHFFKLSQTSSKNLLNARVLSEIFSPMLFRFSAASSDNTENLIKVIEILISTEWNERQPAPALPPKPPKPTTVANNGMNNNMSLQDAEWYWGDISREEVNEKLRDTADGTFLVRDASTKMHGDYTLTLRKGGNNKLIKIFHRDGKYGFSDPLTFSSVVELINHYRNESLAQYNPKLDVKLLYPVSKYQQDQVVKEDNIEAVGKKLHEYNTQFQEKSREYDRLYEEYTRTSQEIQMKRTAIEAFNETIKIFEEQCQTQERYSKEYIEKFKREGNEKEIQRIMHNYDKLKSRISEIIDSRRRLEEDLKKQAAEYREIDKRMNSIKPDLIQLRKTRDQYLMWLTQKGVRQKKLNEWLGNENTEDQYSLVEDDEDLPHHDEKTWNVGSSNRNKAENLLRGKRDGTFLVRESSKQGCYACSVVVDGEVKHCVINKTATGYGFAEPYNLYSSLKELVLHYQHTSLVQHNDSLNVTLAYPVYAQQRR
Turning to `CC(C)(CC(F)(F)F)C(=O)Nc1cc(Br)cc2c1C(c1cc(F)ccc1Cl)NC2=O` (stereo not drawn) [Compound I-1619], the IC50 (in general, the concentration at which inhibition is half-maximal) was in the range of 10 to 100 µM.
Under `CC(C)(C(=O)Nc1cc(Br)cc2c1C(c1cc(F)ccc1Cl)NC2=O)C(F)(F)F` (stereo not drawn) [Compound I-1620] stands 10 to 100 µM; under `O=C1NC(c2cc(F)ccc2Cl)c2c(NC(=O)C3CCCC3C(F)F)cc(Br)cc21` (stereo not drawn) [Compound I-1621], 10 to 100 µM.
Under `O=C1NC(c2cc(F)ccc2Cl)c2c(NC(=O)C3CC4(C3)CC(F)(F)C4)cc(Br)cc21` (stereo not drawn) [Compound I-1622] stands 1 to 10 µM; under `O=C1NC(c2cc(F)ccc2Cl)c2c(NC(=O)C3CCC4C(C3)C4(F)F)cc(Br)cc21` (stereo not drawn) [Compound I-1623], 1 to 10 µM; under `O=C(Nc1cc(-c2ccc3nc(C4CC4)nn3c2)cc2c1C(c1cc(F)ccc1Cl)NC2=O)c1cc(F)cc(C(F)(F)F)c1` (stereo not drawn) [Compound I-1624], not above 0.1 µM.
Under `O=C(Nc1cc(Cc2ccc3c(c2)CCNC3=O)cc2c1[C@@H](c1cc(F)ccc1Cl)NC2=O)c1cc(F)cc(C(F)(F)F)c1` [Compound I-1625] stands 0.5 to 1 µM.
`O=C(Nc1cc(Cc2ccc3c(c2)CCNC3=O)cc2c1[C@H](c1cc(F)ccc1Cl)NC2=O)c1cc(F)cc(C(F)(F)F)c1` [Compound I-1626] gave an IC50 not above 0.1 µM.
On to `O=C(CC1CCCCC1)Nc1cc(-c2ccc3ncnn3c2)cc2c1C(c1cc(F)ccc1Cl)NC2=O` (stereo not drawn) [Compound I-1627], for which the IC50 lay in the range of 1 to 10 µM.
Take `O=C(CCc1ccccc1)Nc1cc(-c2ccc3ncnn3c2)cc2c1C(c1cc(F)ccc1Cl)NC2=O` (stereo not drawn) [Compound I-1628]: the IC50 lay in the range of 1 to 10 µM.
Under `O=C(Nc1cccc2c1C(C1=CCCCC1)NC2=O)c1cc(F)cc(C(F)(F)F)c1` (stereo not drawn) [Compound I-1629] stands 1 to 10 µM; under `O=C1NC(c2cc(F)ccc2Cl)c2c(NC(=O)C(Cl)c3ccccc3)cc(-c3ccc4ncnn4c3)cc21` (stereo not drawn) [Compound I-1630], 1 to 10 µM.
As to `O=C(Nc1cc(-c2ccc3ncnn3c2)cc2c1C(c1cc(F)ccc1Cl)NC2=O)c1nc2ccccc2s1` (stereo not drawn) [Compound I-1631], the IC50 lay in the range of 1 to 10 µM.
Molecule `NC1(C(F)(F)F)CC(C(=O)Nc2cc(Br)cc3c2C(c2cc(F)ccc2Cl)NC3=O)C1` (stereo not drawn) [Compound I-1632] returned an IC50 of 10 to 100 µM.
As to `O=C(CC1CC(F)(F)C1(F)F)Nc1cc(Br)cc2c1C(c1cc(F)ccc1Cl)NC2=O` (stereo not drawn) [Compound I-1633], the IC50 fell in the range of 1 to 10 µM.
In the case of `O=C1NC(c2cc(F)ccc2Cl)c2c(NC(=O)C3CC4(C3)CC4(F)F)cc(Br)cc21` (stereo not drawn) [Compound I-1634], the 50% inhibitory concentration (IC50) fell in the range of 10 to 100 µM.
Under `CC12CC3CC(F)(C1)CC(C(=O)Nc1cc(Br)cc4c1C(c1cc(F)ccc1Cl)NC4=O)(C3)C2` (stereo not drawn) [Compound I-1635] stands 0.1 to 0.5 µM; under `O=C1NC(c2cc(F)ccc2Cl)c2c(NC(=O)C3(c4ccc(Cl)c(Cl)c4)CCCC3)cc(Br)cc21` (stereo not drawn) [Compound I-1636], 10 to 100 µM; under `O=C1NC(c2cc(F)ccc2Cl)c2c(NC(=O)C3(c4cccc(Cl)c4)CCCC3)cc(Br)cc21` (stereo not drawn) [Compound I-1637], 10 to 100 µM.
Under `O=C1NC(c2cc(F)ccc2Cl)c2c(NC(=O)C3(c4cccc(F)c4)CCCC3)cc(Br)cc21` (stereo not drawn) [Compound I-1638] stands 10 to 100 µM.
Under `Cc1cccc(C2(C(=O)Nc3cc(Br)cc4c3C(c3cc(F)ccc3Cl)NC4=O)CCCC2)c1` (stereo not drawn) [Compound I-1639] stands 10 to 100 µM; under `CS(=O)(=O)Cc1cc(NC(=O)c2cc(F)cc(C(F)(F)F)c2)c2c(n1)C(=O)NC2c1cc(F)ccc1Cl` (stereo not drawn) [Compound I-1644], not above 0.1 µM; under `N#Cc1cc2ncnn2cc1-c1cc(NC(=O)c2cc(F)cc(C(F)(F)F)c2)c2c(c1)C(=O)N[C@@H]2c1cc(F)ccc1Cl` [Compound I-1645], 1 to 10 µM.
As to `O=C(Nc1cc(-c2ccc3ncnn3n2)cc2c1[C@@H](c1cc(F)ccc1Cl)NC2=O)c1cc(F)cc(C(F)(F)F)c1` [Compound I-1649], the IC50 fell in the range of 1 to 10 µM.
Under `O=C(Nc1cc(-c2ccc3ncnn3n2)cc2c1[C@H](c1cc(F)ccc1Cl)NC2=O)c1cc(F)cc(C(F)(F)F)c1` [Compound I-1650] stands not above 0.1 µM; under `O=C(Nc1cc(-c2ccn3nc(C4CC4)nc3c2)cc2c1C(c1cc(F)ccc1Cl)NC2=O)c1cc(F)cc(C(F)(F)F)c1` (stereo not drawn) [Compound I-1651], not above 0.1 µM.
Take `O=C(Nc1cc(-c2cn3ncnc3cc2F)cc2c1C(c1cc(F)ccc1Cl)NC2=O)c1cc(F)cc(C(F)(F)F)c1` (stereo not drawn) [Compound I-1652]: the IC50 is not above 0.1 µM.
Turning to `O=C(Nc1cc(-c2cc(F)c3ncnn3c2)cc2c1C(c1cc(F)ccc1Cl)NC2=O)c1cc(F)cc(C(F)(F)F)c1` (stereo not drawn) [Compound I-1653], the IC50 was not above 0.1 µM.
Under `O=C(Nc1cc(-c2ccc3ncnn3c2)nc2c1C(C1CCCC1)NC2=O)c1cc(F)cc(C(F)(F)F)c1` (stereo not drawn) [Compound I-1654] stands 10 to 100 µM.
Under `O=C(Nc1cc(-c2ccn3ncnc3c2)cc2c1C(c1cc(F)ccc1O)NC2=O)c1cc(F)cc(C(F)(F)F)c1` (stereo not drawn) [Compound I-1655] stands 1 to 10 µM; under `Cn1cc(-c2cc(NC(=O)c3cc(F)cc(C(F)(F)F)c3)c3c(c2)C(=O)NC3c2cc(F)ccc2Cl)c(C#N)n1` (stereo not drawn) [Compound I-1656], not above 0.1 µM; under `O=C(Nc1cc(-c2cnn(C(F)F)c2)cc2c1C(c1cc(F)ccc1Cl)NC2=O)c1cc(F)cc(C(F)(F)F)c1` (stereo not drawn) [Compound I-1657], not above 0.1 µM.
Under `O=C1NC(c2cc(F)ccc2Cl)c2c(NCc3ccccc3)cc(Br)cc21` (stereo not drawn) [Compound I-1658] stands 10 to 100 µM; under `O=C1NC(c2cc(F)ccc2Cl)c2c(Nc3nc4ccccc4s3)cc(-c3ccc4ncnn4c3)cc21` (stereo not drawn) [Compound I-1659], 0.1 to 0.5 µM; under `CC(C)(C#N)n1cc(-c2cc(NC(=O)c3cc(F)cc(C(F)(F)F)c3)c3c(c2)C(=O)N[C@@H]3c2cc(F)ccc2Cl)cn1` [Compound I-1660], 0.5 to 1 µM.
For the molecule `CC(C)OC(C(=O)Nc1cc(-c2ccc3ncnn3c2)cc2c1C(c1cc(F)ccc1Cl)NC2=O)c1ccccc1` (stereo not drawn) [Compound I-1662], the IC50 was in the range of 1 to 10 µM.
Under `O=C1NC(c2cc(F)ccc2Cl)c2c(NC(=O)N3CCCCC3)cc(-c3ccc4ncnn4c3)cc21` (stereo not drawn) [Compound I-1663] stands 1 to 10 µM.
Molecule `O=C1NC(c2cc(F)ccc2Cl)c2c(NC(=O)C3CC(O)C3)cc(-c3ccc4ncnn4c3)cc21` (stereo not drawn) [Compound I-1664] showed an IC50 of 10 to 100 µM.
Under `O=C(Cc1ccccc1)Nc1cc(-c2ccc3ncnn3c2)cc2c1C(c1cc(F)ccc1Cl)NC2=O` (stereo not drawn) [Compound I-1665] stands 10 to 100 µM; under `O=C(Nc1cccc2c1C(CO)NC2=O)c1cc(F)cc(C(F)(F)F)c1` (stereo not drawn) [Compound I-1666], 10 to 100 µM; under `O=C(Nc1cc(-c2ccc3ncnn3c2)c(Cl)c2c1C(c1cc(F)ccc1Cl)NC2=O)c1cc(F)cc(C(F)(F)F)c1` (stereo not drawn) [Compound I-1667], not above 0.1 µM.
Under `O=C1NC(c2cc(F)ccc2Cl)c2c(Nc3cn4ccccc4n3)cc(-c3ccc4ncnn4c3)cc21` (stereo not drawn) [Compound I-1668] stands 1 to 10 µM.
In turn, `O=C(Nc1cc(-c2ccn3nccc3c2)cc2c1C(c1cc(F)ccc1Cl)NC2=O)c1cc(F)cc(C(F)(F)F)c1` (stereo not drawn) [Compound I-1669] yielded an IC50 not above 0.1 µM.
`O=C(Nc1cc(-c2ccn3nncc3c2)cc2c1C(c1cc(F)ccc1Cl)NC2=O)c1cc(F)cc(C(F)(F)F)c1` (stereo not drawn) [Compound I-1670] had a concentration for half-maximal inhibition (IC50) not above 0.1 µM.
Under `Nc1cc(-c2ccc3ncnn3c2)cc2c1C(c1cc(F)ccc1Cl)NC2=O` (stereo not drawn) [Compound I-1671] stands 10 to 100 µM; under `O=C1NC(c2cc(F)ccc2Cl)c2c(Br)cc(-c3ccc4ncnn4c3)cc21` (stereo not drawn) [Compound I-1672], 10 to 100 µM; under `O=C(Nc1cccc2c1C(Cc1ccccc1)NC2=O)c1cc(F)cc(C(F)(F)F)c1` (stereo not drawn) [Compound I-1673], 10 to 100 µM.
Under `CC(=O)N1CCCCC1C1NC(=O)c2cccc(NC(=O)c3cc(F)cc(C(F)(F)F)c3)c21` (stereo not drawn) [Compound I-1674] stands 10 to 100 µM.
For `O=C(Nc1cccc2c1C(C1CCCCN1)NC2=O)c1cc(F)cc(C(F)(F)F)c1` (stereo not drawn) [Compound I-1675], the IC50 lay in the range of 1 to 10 µM.
Under `O=C(Nc1cc(-c2ccc3nnc(Cl)n3c2)cc2c1[C@@H](c1cc(F)ccc1Cl)NC2=O)c1cc(F)cc(C(F)(F)F)c1` [Compound I-1676] stands 0.1 to 0.5 µM; under `O=C(Nc1cc(-c2ccn3ncnc3n2)cc2c1C(c1cc(F)ccc1Cl)NC2=O)c1cc(F)cc(C(F)(F)F)c1` (stereo not drawn) [Compound I-1677], not above 0.1 µM; under `O=C(Nc1cccc2c1C(CN1CCCCC1)NC2=O)c1cc(F)cc(C(F)(F)F)c1` (stereo not drawn) [Compound I-1678], 10 to 100 µM.
Consider `O=C1NC(c2cc(F)ccc2Cl)c2c(Nc3cc4ccccn4n3)cc(-c3ccc4ncnn4c3)cc21` (stereo not drawn) [Compound I-1679], for which the IC50 was in the range of 10 to 100 µM.
Under `O=C1NC(c2cc(F)ccc2Cl)c2c(NC(=O)C3CCCCC3)cccc21` (stereo not drawn) [Compound I-1680] stands 1 to 10 µM; under `O=C(Nc1cccc2c1C(c1cc(F)ccc1Cl)NC2=O)c1ccccc1` (stereo not drawn) [Compound I-1681], 10 to 100 µM; under `O=C1NC(c2cc(F)ccc2Cl)c2c(Nc3cccc4ccccc34)cc(Br)cc21` (stereo not drawn) [Compound I-1682], 1 to 10 µM.
Under `O=C1NC(c2cc(F)ccc2Cl)c2c(Nc3cc4ccccc4cn3)cc(Br)cc21` (stereo not drawn) [Compound I-1683] stands 10 to 100 µM; under `O=C1N[C@H](c2cc(F)ccc2Cl)c2c(NC(=O)c3csc4ccccc34)cc(-c3ccc4ncnn4c3)cc21` [Compound I-1685], 1 to 10 µM; under `O=C1NC(c2cc(F)ccc2Cl)c2c(NC(=O)c3cc(F)cc4c(Cl)n[nH]c34)cc(Br)cc21` (stereo not drawn) [Compound I-1686], 1 to 10 µM.
For the molecule `O=C(COc1ccccc1)Nc1cc(-c2ccc3ncnn3c2)cc2c1C(c1cc(F)ccc1Cl)NC2=O` (stereo not drawn) [Compound I-1688], the concentration for half-maximal inhibition (IC50) lay in the range of 10 to 100 µM.
Under `O=C1NC(c2cc(F)ccc2Cl)c2c(NC(=O)C3CC(C(F)(F)F)CCN3)cc(Br)cc21` (stereo not drawn) [Compound I-1689] stands 10 to 100 µM; under `O=C1NC(c2cc(F)ccc2Cl)c2c(NC(=O)C3CCC(O)CC3)cc(-c3ccc4ncnn4c3)cc21` (stereo not drawn) [Compound I-1690], 10 to 100 µM; under `O=C1NC(c2cc(F)ccc2Cl)c2c(Nc3coc4ccccc34)cc(Br)cc21` (stereo not drawn) [Compound I-1691], 1 to 10 µM.
